# Assay results as given in patent US11214803B2, “Modulators of YAP1 expression” (Ionis Pharmaceuticals, Inc., priority 2019, dated 2022).
# Strand notation (5' to 3'): a small letter for the sugar, then the base; units joined by * are phosphorothioate-linked, units joined directly phosphodiester-linked; [ ] holds rarer units or linkages, { } end groups; capitals alone tell only the bases. k = constrained ethyl (cEt); [5mC] = 5-methylcytosine; d = 2'-deoxy (DNA)
# Tested on: Yap1 mRNA
# Assay: Antisense inhibition of human Yap1 in A-431 cells by cEt gapmers, single dose (Example 3, RTS36584)
# Format: cell-based
# Conditions: Table 8; A-431 cells, 5,000 cells per well, free uptake, 2,000 nM, approximately 48 hours; RTS36584; normalized to RIBOGREEN; Yap1 mRNA relative to untreated control cells
# How it was run: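 A-431 cells were treated by free uptake with 2,000 nM modified oligonucleotide (3-10-3 cEt gapmers, full phosphorothioate, 5-methylcytosines) for about 48 hours. Yap1 mRNA was quantified by real-time RT-PCR, normalized to RiboGreen total RNA, and expressed as % of untreated control; asterisked values mark oligonucleotides targeting the amplicon region.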
row,Substance,YAP1 (% UTC)
1,958374 (antisense k[5mC]*kA*kG*dA*dG*dG*dT*dG*d[5mC]*dT*dA*dG*d[5mC]*kT*kG*kG) [Compound 958374],38 % UTC
2,958415 (antisense k[5mC]*kT*kG*dT*dG*dT*dA*dG*dG*d[5mC]*dT*dG*dA*k[5mC]*kT*kT) [Compound 958415],16 % UTC
3,958377 (antisense kG*k[5mC]*kT*dG*dG*dG*dA*dT*dT*dG*dA*dT*dA*kT*kT*k[5mC]) [Compound 958377],9 % UTC
4,958372 (antisense kG*kG*kT*dG*d[5mC]*dT*dA*dG*d[5mC]*dT*dG*dG*dT*kG*k[5mC]*k[5mC]) [Compound 958372],49 % UTC
5,958362 (antisense kA*kG*k[5mC]*dT*d[5mC]*dG*dA*dA*d[5mC]*dA*dT*dG*d[5mC]*kT*kG*kT) [Compound 958362],58 % UTC
6,958352 (k[5mC]*kG*kG*dT*d[5mC]*dT*d[5mC]*d[5mC]*dG*dA*dG*dT*d[5mC]*k[5mC]*k[5mC]*k[5mC]; antisense) [Compound 958352],110 % UTC

# Same assay, conditions: Table 9; A-431 cells, 5,000 cells per well, free uptake, 2,000 nM, approximately 48 hours; RTS36584; normalized to RIBOGREEN; Yap1 mRNA relative to untreated control cells
row,Substance,YAP1 (% UTC)
1,958536 (kA*kG*kG*dG*dT*d[5mC]*dA*dA*dT*dT*dT*dT*d[5mC]*kA*kG*k[5mC]; antisense) [Compound 958536],3 % UTC
2,958486 (kT*kT*kA*dG*dA*dG*d[5mC]*d[5mC]*dA*dA*d[5mC]*dT*dG*kT*kG*kA; antisense) [Compound 958486],9 % UTC
3,958701 (antisense kT*kT*kA*dA*dA*d[5mC]*dT*dA*dG*dG*d[5mC]*dA*d[5mC]*kA*kT*kT) [Compound 958701],98 % UTC

# Same assay, conditions: Table 10; A-431 cells, 5,000 cells per well, free uptake, 2,000 nM oligonucleotide, approx. 48 hours; primer probe set RTS36584; Yap1 mRNA normalized to RIBOGREEN, percent of untreated control
row,Substance,YAP1 (% UTC)
1,958437 (antisense kA*kG*kG*d[5mC]*dA*d[5mC]*dT*d[5mC]*dG*dG*dA*d[5mC]*d[5mC]*kT*kG*k[5mC]) [Compound 958437],84 % UTC
2,958747 (antisense kG*kT*kA*dA*dA*dG*dA*dG*dG*dG*dT*dG*dA*k[5mC]*kA*kT) [Compound 958747],106 % UTC
3,958707 (antisense kT*k[5mC]*kA*dA*dT*dG*d[5mC]*dT*dG*dT*dA*dT*d[5mC]*kA*kG*kA) [Compound 958707],23 % UTC
4,958557 (k[5mC]*kA*k[5mC]*dA*dA*d[5mC]*d[5mC]*dA*dA*d[5mC]*dT*dA*dT*kT*kA*k[5mC]; antisense) [Compound 958557],10 % UTC
5,958477 (antisense kA*kT*kT*dT*d[5mC]*d[5mC]*dG*dG*dT*dG*d[5mC]*dA*dT*kG*kT*kG) [Compound 958477],2 % UTC
6,958787 (antisense kT*kG*kG*dG*d[5mC]*dA*dA*dA*dG*dT*dT*d[5mC]*d[5mC]*kT*k[5mC]*kT) [Compound 958787],67 % UTC
7,958457 (antisense kG*kT*k[5mC]*dG*dA*dA*dG*dA*dT*dG*d[5mC]*dT*dG*kA*kG*k[5mC]) [Compound 958457],5 % UTC
8,958582 (kA*kA*kT*d[5mC]*dT*dG*d[5mC]*dT*dG*dA*dT*dA*dT*kA*kT*kA; antisense) [Compound 958582],21 % UTC

# Same assay, conditions: Table 11; A-431 cells, 5,000 cells per well, free uptake, 2,000 nM oligonucleotide, approx. 48 hours; primer probe set RTS36584; Yap1 mRNA normalized to RIBOGREEN, percent of untreated control
row,Substance,YAP1 (% UTC)
1,958608 (antisense kT*kG*kA*dT*dA*dG*dG*d[5mC]*dA*d[5mC]*dA*d[5mC]*d[5mC]*k[5mC]*kA*k[5mC]) [Compound 958608],11 % UTC
2,958613 (antisense k[5mC]*k[5mC]*kT*dG*dA*dA*dG*d[5mC]*d[5mC]*dG*dA*dG*dT*kT*k[5mC]*kA) [Compound 958613],15 % UTC

# Same assay, conditions: Table 12; A-431 cells, 5,000 cells per well, free uptake, 2,000 nM modified oligonucleotide, approx. 48 hours; RTS36584; normalized to RIBOGREEN; Yap1 mRNA relative to untreated control cells
row,Substance,YAP1 (% UTC)
1,958639 (antisense kG*kT*kT*dA*dT*dG*dG*dG*dT*dG*d[5mC]*dT*dT*kT*kT*k[5mC]) [Compound 958639],18 % UTC
2,958479 (antisense kA*kT*kG*dG*dA*dA*dA*dT*dT*dT*d[5mC]*d[5mC]*dG*kG*kT*kG) [Compound 958479],15 % UTC
3,958769 (antisense k[5mC]*kA*kT*dT*dG*d[5mC]*d[5mC]*dA*d[5mC]*dG*dA*dT*d[5mC]*kT*kA*kA) [Compound 958769],36 % UTC
4,958454 (antisense kG*kG*kA*dA*dT*dG*dA*dG*d[5mC]*dT*d[5mC]*dG*dA*kA*k[5mC]*kA) [Compound 958454],3 % UTC

# Same assay, conditions: Table 13; A-431 cells, 5,000 cells per well, free uptake, 2,000 nM modified oligonucleotide, approx. 48 hours; RTS36584; normalized to RIBOGREEN; Yap1 mRNA relative to untreated control cells
row,Substance,YAP1 (% UTC)
1,958725 (antisense kG*kT*k[5mC]*dA*dG*dT*dT*dA*dT*d[5mC]*d[5mC]*dT*dA*kT*k[5mC]*k[5mC]) [Compound 958725],1 % UTC
2,958690 (antisense kT*kG*kG*dA*d[5mC]*dT*d[5mC]*dT*dT*dG*dA*dT*d[5mC]*kA*k[5mC]*kA) [Compound 958690],26 % UTC
3,958815 (kG*kG*kG*d[5mC]*dG*dA*dG*dG*dA*dG*dA*d[5mC]*dA*kG*kG*kT; antisense) [Compound 958815],16 % UTC
4,958620 (antisense kA*kA*kG*d[5mC]*d[5mC]*dT*dT*dG*dG*dG*dT*d[5mC]*dT*kA*kG*k[5mC]) [Compound 958620],57 % UTC
5,958770 (antisense kA*k[5mC]*kA*dG*dA*dG*d[5mC]*dG*dG*dT*dG*d[5mC]*dA*k[5mC]*k[5mC]*k[5mC]) [Compound 958770],64 % UTC
6,958485 (kA*kG*kA*dG*dG*dT*d[5mC]*dA*dG*d[5mC]*dA*dA*dT*kA*k[5mC]*kA; antisense) [Compound 958485],3 % UTC

# Same assay, conditions: Table 26; Yap1 mRNA by 3-10-3 cEt gapmers targeting SEQ ID NO.: 1, and 2; percent of untreated control
row,Substance,YAP1 (% UTC)
1,1075436 (antisense k[5mC]*k[5mC]*kT*dT*dA*dA*dA*d[5mC]*dG*dA*dT*dA*dA*kA*kG*kT) [compound 1075436],89 % UTC
2,1075468 (antisense k[5mC]*kA*k[5mC]*d[5mC]*dA*dA*dT*dA*d[5mC]*dT*dG*dA*dG*kT*kA*kT) [compound 1075468],91 % UTC
3,1075532 (kA*k[5mC]*kT*dT*dA*dA*dT*dA*dG*dT*dT*dT*dA*kA*k[5mC]*k[5mC]; antisense) [compound 1075532],121 % UTC
4,1074572 (DNA kT*kT*kA*dT*dG*dA*dA*d[5mC]*d[5mC]*dT*dA*d[5mC]*dT*k[5mC]*kA*k[5mC]) [compound 1074572],17 % UTC
5,1076268 (kG*kT*kA*d[5mC]*dA*dA*dT*dA*dA*dT*dG*d[5mC]*dT*kT*k[5mC]*k[5mC]; antisense) [compound 1076268],10 % UTC
6,1074188 (antisense kG*k[5mC]*kT*dG*d[5mC]*dG*dA*dA*dG*dG*d[5mC]*dG*dG*k[5mC]*kT*kG) [compound 1074188],113 % UTC
7,1075372 (antisense kA*kT*kA*dT*dA*dT*dA*dG*dA*d[5mC]*dT*dT*dG*kA*kG*kA) [compound 1075372],27 % UTC

# Same assay, conditions: Table 27; Yap1 mRNA by 3-10-3 cEt gapmers targeting SEQ ID NO.: 1, and 2; percent of untreated control
row,Substance,YAP1 (% UTC)
1,1076205 (kT*kA*kG*dT*dA*dT*dA*dA*dT*dT*d[5mC]*dA*dT*kG*kA*k[5mC]; antisense) [compound 1076205],51 % UTC
2,1075853 (kG*kA*kG*d[5mC]*dG*dA*dT*dA*dA*dG*d[5mC]*dT*dG*kT*kA*kT; antisense) [compound 1075853],72 % UTC
3,1075629 (antisense kG*k[5mC]*k[5mC]*dG*d[5mC]*dA*dA*dA*dA*dT*dA*dT*dT*kA*kA*kT) [compound 1075629],100 % UTC

# Same assay, conditions: Table 28; Yap1 mRNA as percent of untreated control; 3-10-3 cEt gapmers targeting SEQ ID NO.: 1, and 2
row,Substance,YAP1 (% UTC)
1,1074926 (antisense k[5mC]*kA*kA*d[5mC]*dA*dG*dG*d[5mC]*d[5mC]*dT*dG*d[5mC]*dA*kA*kA*kT) [compound 1074926],111 % UTC
2,1076558 (kG*k[5mC]*k[5mC]*dA*dA*dA*dT*dA*dT*dT*dT*dA*dA*k[5mC]*kT*k[5mC]; antisense) [compound 1076558],30 % UTC
3,1075566 (kA*kT*kA*dT*dA*dT*dA*dA*d[5mC]*dA*dG*dG*d[5mC]*k[5mC]*kA*k[5mC]; antisense) [compound 1075566],50 % UTC

# Same assay, conditions: Table 29; Yap1 mRNA as percent of untreated control; 3-10-3 cEt gapmers targeting SEQ ID NO.: 1, and 2
row,Substance,YAP1 (% UTC)
1,1075631 (antisense k[5mC]*k[5mC]*k[5mC]*dT*dA*dT*dA*dA*d[5mC]*d[5mC]*dA*dA*dA*kT*kG*k[5mC]) [compound 1075631],104 % UTC

# Same assay, conditions: Table 34; Yap1 mRNA as percent of untreated control; 3-10-3 cEt gapmers targeting SEQ ID NO: 1 and 2; single dose
row,Substance,YAP1 (% UTC)
1,1075316 (antisense kG*kT*kA*dT*dA*dT*dA*dG*dA*dT*dA*d[5mC]*d[5mC]*k[5mC]*kA*k[5mC]) [compound 1075316],25 % UTC
2,1076500 (k[5mC]*kA*kA*dT*dT*dA*dA*dG*dA*dT*d[5mC]*dA*dA*k[5mC]*kA*kT; antisense) [compound 1076500],99 % UTC
3,1074644 (antisense kA*kT*kT*dG*dA*dA*dG*dG*dG*d[5mC]*d[5mC]*dA*dA*kA*kA*kT) [compound 1074644],93 % UTC
4,1075604 (antisense kA*kT*kA*dA*dT*dT*dA*dA*dG*d[5mC]*dT*dA*dT*k[5mC]*kA*k[5mC]) [compound 1075604],81 % UTC
